Data published in patent US20170362228A1, “TETRAHYDRO-PYRIDO[3,4-b]INDOLE ESTROGEN RECEPTOR MODULATORS AND USES THEREOF” (Genentech, Inc., priority 2016, published 2017).
Where two headings read alike, the source gives them in different places.

What was measured:
[1] = molecular target: T1, estrogen receptor alpha (ESR1) (Homo sapiens, UniProt P03372); experiment: Breast Cancer Cell ERa High Content Fluorescence Imaging Degradation Assay (Example 901); format: cell-based; settings: MCF7 breast cancer cells, 4 hours, plateau of the maximal effect
T1 construct: endogenous in cells; host or cells: MCF7 breast cancer cells
T1 sequence (P03372 1-595): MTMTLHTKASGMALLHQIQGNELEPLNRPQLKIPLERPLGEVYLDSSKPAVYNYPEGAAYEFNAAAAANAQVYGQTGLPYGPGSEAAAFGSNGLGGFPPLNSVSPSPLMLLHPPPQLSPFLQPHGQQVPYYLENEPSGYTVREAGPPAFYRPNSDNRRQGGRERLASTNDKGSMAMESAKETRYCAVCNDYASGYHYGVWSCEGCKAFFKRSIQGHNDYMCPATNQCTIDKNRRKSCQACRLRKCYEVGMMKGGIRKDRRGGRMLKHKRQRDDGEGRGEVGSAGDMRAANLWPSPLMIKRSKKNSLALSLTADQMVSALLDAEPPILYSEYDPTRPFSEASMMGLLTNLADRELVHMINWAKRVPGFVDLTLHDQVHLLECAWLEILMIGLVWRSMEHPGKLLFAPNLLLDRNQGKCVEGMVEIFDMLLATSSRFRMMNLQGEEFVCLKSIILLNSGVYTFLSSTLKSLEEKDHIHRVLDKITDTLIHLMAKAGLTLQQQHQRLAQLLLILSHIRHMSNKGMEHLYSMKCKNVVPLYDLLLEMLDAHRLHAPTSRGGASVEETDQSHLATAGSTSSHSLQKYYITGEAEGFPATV
How it was run: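 MCF7 cells in phenol red-free RPMI with 10% charcoal-stripped FBS, exposed to compound at 0.05–835 nM (10-point, 1.8×, duplicate; 0.84% DMSO) for 4 h at 37 °C. Fixed cells immunostained for ESR1 (F10 mAb, Alexa 488) with Hoechst nuclear mask; nuclear ESR1 intensity imaged per cell. DMSO and 5 nM fulvestrant set 0%/100%; EC50 and Sinf by robust fit.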

[2] = test system: MCF7 cells; experiment: In vitro cell proliferation assays (Examples 902 and 903), MCF7; format: cell-based; settings: read-out: ER-alpha MCF7 HCS (EC50)
[3] = Table 1a, DMSO and Fulvestrant define 0% and 100% changes in ESR1

## C[C@@H]1Cc2c([nH]c3ccc(F)cc23)[C@@H](c2c(F)cc(C(O)C3CN(CCCF)C3)cc2F)N1CC(C)(F)CO (stereo partly drawn) [Compound 118, 3-((1R,3R)-1-(2,6-difluoro-4-((1-(3-fluoropropyl)azetidin-3-yl)(hydroxy)methyl)phenyl)-6-fluoro-3-methyl-1,3,4,9-tetrahydro-2H-pyrido[3,4-b]indol-2-yl)-2-fluoro-2-methylpropan-1-ol]
[1]; [3]
  ER-alpha MCF7 HCS (S inf): −96.56%
[2]; Table 1a
  EC50: 0.022 nM

## C[C@@H]1Cc2c([nH]c3ccccc23)[C@@H](c2c(F)cc([C@H](O)C3CN(CCCF)C3)cc2F)N1CC(F)(F)F [Compound 119, (R)-(3,5-difluoro-4-((1R,3R)-3-methyl-2-(2,2,2-trifluoroethyl)-2,3,4,9-tetrahydro-1H-pyrido[3,4-b]indol-1-yl)phenyl)(1-(3-fluoropropyl)azetidin-3-yl)methanol]
[1]; [3]
  ER-alpha MCF7 HCS (S inf): −98.93%
[2]; Homo sapiens, MCF7, Table 1a
  EC50: 0.085 nM

## C[C@@H]1Cc2c([nH]c3ccccc23)[C@@H](c2c(F)cc([C@@H](O)C3CN(CCCF)C3)cc2F)N1CC(F)(F)F [Compound 120, (S)-(3,5-difluoro-4-((1R,3R)-3-methyl-2-(2,2,2-trifluoroethyl)-2,3,4,9-tetrahydro-1H-pyrido[3,4-b]indol-1-yl)phenyl)(1-(3-fluoropropyl)azetidin-3-yl)methanol]
[1]; [3]
  ER-alpha MCF7 HCS (S inf): −99.17%
[2]; Homo sapiens, MCF7, Table 1a
  EC50: 0.037 nM

## C[C@@H]1Cc2c([nH]c3ccccc23)[C@@H](c2ccc([C@H](F)C3CN(CCCF)C3)cc2)N1CC(F)(F)CO [Compound 123]
[1]; [3]
  ER-alpha MCF7 HCS (S inf): −98.38%
[2]; Homo sapiens, MCF7, Table 1a
  EC50: 0.041 nM

## C[C@@H]1Cc2c([nH]c3ccccc23)[C@@H](c2ccc([C@@H](F)C3CN(CCCF)C3)cc2)N1CC(F)(F)CO [Compound 124, 2,2-difluoro-3-((1R,3R)-1-(4-((S)-fluoro(1-(3-fluoropropyl)azetidin-3-yl)methyl)phenyl)-3-methyl-1,3,4,9-tetrahydro-2H-pyrido[3,4-b]indol-2-yl)propan-1-ol]
[1]; [3]
  ER-alpha MCF7 HCS (S inf): −96.62%
[2]; Homo sapiens, MCF7, Table 1a
  EC50: 0.022 nM

## C[C@@H]1Cc2c([nH]c3ccccc23)[C@@H](c2ccc([C@H](F)C3CN(CCCF)C3)cc2F)N1CC(F)(F)CO [Compound 125, 2,2-difluoro-3-((1R,3R)-1-(2-fluoro-4-((R)-fluoro(1-(3-fluoropropyl)azetidin-3-yl)methyl)phenyl)-3-methyl-1,3,4,9-tetrahydro-2H-pyrido[3,4-b]indol-2-yl)propan-1-ol]
[1]; [3]
  ER-alpha MCF7 HCS (S inf): −98.52%
[2]; Homo sapiens, MCF7, Table 1a
  EC50: 0.019 nM

## C[C@@H]1Cc2c([nH]c3ccccc23)[C@@H](c2ccc([C@@H](F)C3CN(CCCF)C3)cc2F)N1CC(F)(F)CO [Compound 126, 2,2-difluoro-3-((1R,3R)-1-(2-fluoro-4-((S)-fluoro(1-(3-fluoropropyl)azetidin-3-yl)methyl)phenyl)-3-methyl-1,3,4,9-tetrahydro-2H-pyrido[3,4-b]indol-2-yl)propan-1-ol]
[1]; [3]
  ER-alpha MCF7 HCS (S inf): −95.71%
[2]; Homo sapiens, MCF7, Table 1a
  EC50: 0.021 nM

## C[C@@H]1Cc2c([nH]c3ccccc23)[C@@H](c2ccc([C@H](O)C3CN(CCCF)C3)cc2)N1CC(F)(F)CO [Compound 127, 2,2-difluoro-3-((1R,3R)-1-(4-((R)-(1-(3-fluoropropyl)azetidin-3-yl)(hydroxy)methyl)phenyl)-3-methyl-1,3,4,9-tetrahydro-2H-pyrido[3,4-b]indol-2-yl)propan-1-ol]
[1]; [3]
  ER-alpha MCF7 HCS (S inf): −97.29%
[2]; Homo sapiens, MCF7, Table 1a
  EC50: 0.071 nM

## C[C@@H]1Cc2c([nH]c3ccccc23)[C@@H](c2ccc([C@@H](O)C3CN(CCCF)C3)cc2)N1CC(F)(F)CO [Compound 128, 2,2-difluoro-3-((1R,3R)-1-(4-((S)-(1-(3-fluoropropyl)azetidin-3-yl)(hydroxy)methyl)phenyl)-3-methyl-1,3,4,9-tetrahydro-2H-pyrido[3,4-b]indol-2-yl)propan-1-ol]
[1]; [3]
  ER-alpha MCF7 HCS (S inf): −97.31%
[2]; Homo sapiens, MCF7, Table 1a
  EC50: 0.088 nM

## C[C@@H]1Cc2c([nH]c3ccccc23)[C@@H](c2ccc([C@H](O)C3CN(CCCF)C3)cc2F)N1CC(F)(F)CO [Compound 129, 2,2-difluoro-3-((1R,3R)-1-(2-fluoro-4-((R)-(1-(3-fluoropropyl)azetidin-3-yl)(hydroxy)methyl)phenyl)-3-methyl-1,3,4,9-tetrahydro-2H-pyrido[3,4-b]indol-2-yl)propan-1-ol]
[1]; [3]
  ER-alpha MCF7 HCS (S inf): −98.76%
[2]; Homo sapiens, MCF7, Table 1a
  EC50: 0.034 nM

## C[C@@H]1Cc2c([nH]c3ccccc23)[C@@H](c2ccc([C@@H](O)C3CN(CCCF)C3)cc2F)N1CC(F)(F)CO [Compound 130, 2,2-difluoro-3-((1R,3R)-1-(2-fluoro-4-((S)-(1-(3-fluoropropyl)azetidin-3-yl)(hydroxy)methyl)phenyl)-3-methyl-1,3,4,9-tetrahydro-2H-pyrido[3,4-b]indol-2-yl)propan-1-ol]
[1]; [3]
  ER-alpha MCF7 HCS (S inf): −96.45%
[2]; Homo sapiens, MCF7, Table 1a
  EC50: 0.037 nM

## C[C@@H]1Cc2c([nH]c3cc(F)ccc23)[C@@H](c2c(F)cc([C@@H](O)C3CN(CCCF)C3)cc2F)N1CC(F)(F)CO [Compound 141, 3-((1R,3R)-1-(2,6-difluoro-4-((S)-(1-(3-fluoropropyl)azetidin-3-yl)(hydroxy)methyl)phenyl)-7-fluoro-3-methyl-1,3,4,9-tetrahydro-2H-pyrido[3,4-b]indol-2-yl)-2,2-difluoropropan-1-ol]
[1]; [3]
  ER-alpha MCF7 HCS (S inf): −100%
[2]; Homo sapiens, MCF7, Table 1a
  EC50: 1.3 nM

## C[C@@H]1Cc2c([nH]c3cccc(F)c23)[C@@H](c2c(F)cc([C@H](O)C3CN(CCCF)C3)cc2F)N1CC(F)(F)CO [Compound 143, 3-((1R,3R)-1-(2,6-difluoro-4-((R)-(1-(3-fluoropropyl)azetidin-3-yl)(hydroxy)methyl)phenyl)-5-fluoro-3-methyl-3,4-dihydro-1H-pyrido[3,4-b]indol-2(9H)-yl)-2,2-difluoropropan-1-ol]
[1]; [3]
  ER-alpha MCF7 HCS (S inf): −101%
[2]; Homo sapiens, MCF7, Table 1a
  EC50: 0.035 nM

## C[C@@H]1Cc2c([nH]c3cccc(F)c23)[C@@H](c2c(F)cc([C@@H](O)C3CN(CCCF)C3)cc2F)N1CC(F)(F)CO [Compound 144, 3-((1R,3R)-1-(2,6-difluoro-4-((S)-(1-(3-fluoropropyl)azetidin-3-yl)(hydroxy)methyl)phenyl)-5-fluoro-3-methyl-3,4-dihydro-1H-pyrido[3,4-b]indol-2(9H)-yl)-2,2-difluoropropan-1-ol]
[1]; [3]
  ER-alpha MCF7 HCS (S inf): −101%
[2]; Homo sapiens, MCF7, Table 1a
  EC50: 0.028 nM

## C[C@@H]1Cc2c([nH]c3ccccc23)[C@@H](c2c(F)cc(C(N)C3CN(CCCF)C3)cc2F)N1CC(F)(F)CO (stereo partly drawn) [Compound 145, 3-((1R,3R)-1-(4-(amino(1-(3-fluoropropyl)azetidin-3-yl)methyl)-2,6-difluorophenyl)-3-methyl-3,4-dihydro-1H-pyrido[3,4-b]indol-2(9H)-yl)-2,2-difluoropropan-1-ol]
[1]; [3]
  ER-alpha MCF7 HCS (S inf): −103%
[2]; Homo sapiens, MCF7, Table 1a
  EC50: 0.072 nM

## C[C@@H]1Cc2c([nH]c3ccccc23)[C@@H](c2c(F)cc(C(F)(F)C3CN(CCCF)C3)cc2F)N1CC(C)(C)F [Compound 146, (1R,3R)-1-(4-(Difluoro(1-(3-fluoropropyl)azetidin-3-yl)methyl)-2,6-difluorophenyl)-2-(2-fluoro-2-methylpropyl)-3-methyl-2,3,4,9-tetrahydro-1H-pyrido[3,4-b]indole]
[1]; [3]
  ER-alpha MCF7 HCS (S inf): −96.1%
[2]; Homo sapiens, MCF7, Table 1a
  EC50: 0.26 nM

## C[C@@H]1Cc2c([nH]c3ccccc23)[C@@H](c2c(F)cc(C(C#N)C3CN(CCCF)C3)cc2F)N1CC(F)(F)CO (stereo partly drawn) [Compound 150, 2-(4-((1R,3R)-2-(2,2-difluoro-3-hydroxypropyl)-3-methyl-2,3,4,9-tetrahydro-1H-pyrido[3,4-b]indol-1-yl)-3,5-difluorophenyl)-2-(1-(3-fluoropropyl)azetidin-3-yl)acetonitrile]
[1]; [3]
  ER-alpha MCF7 HCS (S inf): −94%
[2]; Homo sapiens, MCF7, Table 1a
  EC50: 0.054 nM

## C[C@@H]1Cc2c([nH]c3ccccc23)[C@@H](c2c(F)cc(C(O)C3CN(CCC(F)F)C3)cc2F)N1CC(F)(F)CO (stereo partly drawn) [Compound 153, 3-((1R,3R)-1-(4-((1-(3,3-difluoropropyl)azetidin-3-yl)(hydroxy)methyl)-2,6-difluorophenyl)-3-methyl-3,4-dihydro-1H-pyrido[3,4-b]indol-2(9H)-yl)-2,2-difluoropropan-1-ol]
[1]; Table 1b
  ER-alpha MCF7 HCS (S inf): −92%
[2]; Homo sapiens, MCF7, Table 1b
  EC50: 0.17 nM

## C[C@@H]1Cc2c([nH]c3ccccc23)[C@@H](c2c(F)cc([C@@](C)(O)C3CN(CCCF)C3)cc2F)N1CC(F)(F)CO [Compound 154, 3-((1R,3R)-1-(2,6-difluoro-4-((S)-1-(1-(3-fluoropropyl)azetidin-3-yl)-1-hydroxyethyl)phenyl)-3-methyl-3,4-dihydro-1H-pyrido[3,4-b]indol-2(9H)-yl)-2,2-difluoropropan-1-ol]
[1]; Table 1b
  ER-alpha MCF7 HCS (S inf): −98%
[2]; Homo sapiens, MCF7, Table 1b
  EC50: 0.058 nM
